Biological target: human F508del-CFTR (Homo sapiens, UniProt P13569, DEL508-508)
Assay: F508del-CFTR cell surface expression (corrector activity), DiscoveRx ß-galactosidase complementation chemiluminescence assay in recombinant U2OS cell line;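 also: U2OS cells co-expressing ProLink-tagged F508del-CFTR and a membrane-anchored enzyme acceptor, where more surface CFTR restores β-galactosidase activity measured by chemiluminescence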
Settings: U2OS cell line, 16h compound incubation; for EC50: EC50, F508del-CFTR cell surface expression, geomean values; for Emax: U2OS, in relation to the Emax of the corrector lumacaftor (=100%), arithmetic mean values

human F508del-CFTR, sequence (P13569 with tags, fused parts or gaps DEL508-508): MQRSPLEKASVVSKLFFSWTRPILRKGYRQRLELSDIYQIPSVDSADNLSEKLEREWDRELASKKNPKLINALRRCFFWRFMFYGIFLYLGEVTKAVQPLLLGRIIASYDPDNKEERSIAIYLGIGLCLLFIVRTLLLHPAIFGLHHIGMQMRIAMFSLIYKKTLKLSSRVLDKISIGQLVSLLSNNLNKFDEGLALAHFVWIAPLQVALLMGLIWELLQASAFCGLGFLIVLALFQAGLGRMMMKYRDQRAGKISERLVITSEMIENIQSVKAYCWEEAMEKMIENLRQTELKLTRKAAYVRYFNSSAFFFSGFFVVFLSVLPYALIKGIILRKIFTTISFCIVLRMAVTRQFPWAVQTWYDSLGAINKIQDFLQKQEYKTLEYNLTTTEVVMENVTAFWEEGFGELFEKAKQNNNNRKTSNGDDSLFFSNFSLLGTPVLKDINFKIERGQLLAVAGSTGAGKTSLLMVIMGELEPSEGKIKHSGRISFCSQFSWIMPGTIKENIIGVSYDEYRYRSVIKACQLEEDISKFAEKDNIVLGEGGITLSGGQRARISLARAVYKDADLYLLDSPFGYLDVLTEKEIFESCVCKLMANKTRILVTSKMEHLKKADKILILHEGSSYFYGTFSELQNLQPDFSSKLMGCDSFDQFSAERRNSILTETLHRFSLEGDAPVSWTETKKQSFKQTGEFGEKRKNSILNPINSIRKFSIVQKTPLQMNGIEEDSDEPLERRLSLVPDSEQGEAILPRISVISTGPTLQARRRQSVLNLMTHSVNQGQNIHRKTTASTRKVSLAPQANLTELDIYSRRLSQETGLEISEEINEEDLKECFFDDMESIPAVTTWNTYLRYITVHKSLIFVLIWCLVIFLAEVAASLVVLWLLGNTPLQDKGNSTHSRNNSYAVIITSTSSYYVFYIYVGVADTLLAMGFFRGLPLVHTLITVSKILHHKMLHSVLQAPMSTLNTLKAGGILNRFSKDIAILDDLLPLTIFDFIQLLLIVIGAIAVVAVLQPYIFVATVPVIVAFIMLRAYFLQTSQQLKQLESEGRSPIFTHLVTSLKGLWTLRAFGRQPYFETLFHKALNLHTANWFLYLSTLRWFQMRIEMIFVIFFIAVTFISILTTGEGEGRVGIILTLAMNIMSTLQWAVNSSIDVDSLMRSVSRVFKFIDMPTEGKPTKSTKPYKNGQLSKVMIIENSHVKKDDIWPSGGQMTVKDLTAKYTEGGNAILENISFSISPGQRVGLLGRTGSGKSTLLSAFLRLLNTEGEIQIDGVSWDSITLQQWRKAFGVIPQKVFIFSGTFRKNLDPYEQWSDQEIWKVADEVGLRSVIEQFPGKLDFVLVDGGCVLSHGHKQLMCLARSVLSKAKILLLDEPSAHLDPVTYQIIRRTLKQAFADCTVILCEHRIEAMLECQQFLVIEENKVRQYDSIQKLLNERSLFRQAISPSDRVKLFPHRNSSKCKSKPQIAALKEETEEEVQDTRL

SMILES	EC50 [nM]	Emax [%]
CC(C)C[C@H]1C(=O)N(C)C2(CC2)C(=O)N[C@H](Cc2ccccc2)COc2cnc3ccccc3c2C(=O)N[C@H](C(=O)NCCc2nc(C3CC3)no2)CC(=O)N1C [Example 121, (3′S,7′S,13′R)-13′-benzyl-N-(2-(3-cyclopropyl-1,2,4-oxadiazol-5-yl)ethyl)-7′-isobutyl-6′,9′-dimethyl-1′,5′,8′,11′-tetraoxo-2′,3′,4′,5′,6′,7′,8′,9′,11′,12′,13′,14′-dodecahydro-1′H-spiro[cyclopropane-1,10′-[1]oxa[4,7,10,14]tetraazacycloheptadecino[17,16-c]quinoline]-3′-carboxamide]	615	354
CC(C)C[C@H]1C(=O)N2CCCC[C@@H]2C(=O)N[C@H](Cc2ccccc2)COc2cnc3ccccc3c2C(=O)N[C@H](C(=O)NCCc2cccc(-c3ncccn3)c2)CC(=O)N1C [Example 123, (9S,13S,19aR,22R)-22-benzyl-13-isobutyl-12-methyl-7,11,14,20-tetraoxo-N-(3-(pyrimidin-2-yl)phenethyl)-7,8,9,10,11,12,13,14,17,18,19,19a,20,21,22,23-hexadecahydro-16H-pyrido[2′,1′:6,7][1]oxa[4,7,10,14]tetraazacycloheptadecino[17,16-c]quinoline-9-carboxamide]	873	280
CC(C)C[C@H]1C(=O)N2CCCC[C@@H]2C(=O)N[C@H](Cc2ccccc2)COc2cnc3ccccc3c2C(=O)N[C@H](C(=O)NCCc2cc(F)cc(F)c2)CC(=O)N1C [Example 126, (9S,13S,19aR,22R)-22-benzyl-N-(3,5-difluorophenethyl)-13-isobutyl-12-methyl-7,11,14,20-tetraoxo-7,8,9,10,11,12,13,14,17,18,19,19a,20,21,22,23-hexadecahydro-16H-pyrido[2′,1′:6,7][1]oxa[4,7,10,14]tetraazacycloheptadecino[17,16-c]quinoline-9-carboxamide]	261	230
Cc1cn(C)nc1CCNC(=O)[C@@H]1CC(=O)N(C)[C@@H](CC(C)C)C(=O)N2CCCC[C@@H]2C(=O)N[C@H](Cc2ccccc2)COc2cnc3ccccc3c2C(=O)N1 [Example 129, (9S,13S,19aR,22R)-22-benzyl-N-(2-(1,4-dimethyl-1H-pyrazol-3-yl)ethyl)-13-isobutyl-12-methyl-7,11,14,20-tetraoxo-7,8,9,10,11,12,13,14,17,18,19,19a,20,21,22,23-hexadecahydro-16H-pyrido[2′,11:6,7][1]oxa[4,7,10,14]tetraazacycloheptadecino[17,16-c]quinoline-9-carboxamide]	406	264
COc1cccc(CCNC(=O)[C@@H]2CC(=O)N(C)[C@@H](CC(C)C)C(=O)N(C)C3(CC3)C(=O)N[C@H](Cc3ccccc3)COc3cnc4ccc(F)cc4c3C(=O)N2)c1 [Example 131, (3′S,7′S,13′R)-13′-benzyl-20′-fluoro-7′-isobutyl-N-(3-methoxyphenethyl)-6′,9′-dimethyl-1′,5′,8′,11′-tetraoxo-2′,3′,4′,5′,6′,7′,8′,9′,11′,12′,13′,14′-dodecahydro-1′H-spiro[cyclopropane-1,10′-[1]oxa[4,7,10,14]tetraazacycloheptadecino[17,16-c]quinoline]-3′-carboxamide]	127	320
CC(C)C[C@H]1C(=O)N(C)C2(CC2)C(=O)N[C@H](Cc2ccccc2)COc2cnc3ccc(F)cc3c2C(=O)N[C@H](C(=O)NCCc2c(F)cccc2F)CC(=O)N1C [Example 132, (3′S,7′S,13′R)-13′-benzyl-N-(2,6-difluorophenethyl)-20′-fluoro-7′-isobutyl-6′,9′-dimethyl-1′,5′,8′,11′-tetraoxo-2′,3′,4′,5′,6′,7′,8′,9′,11′,12′,13′,14′-dodecahydro-1′H-spiro[cyclopropane-1,10′-[1]oxa[4,7,10,14]tetraazacycloheptadecino[17,16-c]quinoline]-3′-carboxamide]	110	313
CC(C)C[C@H]1C(=O)N(C)C2(CC2)C(=O)N[C@H](Cc2ccccc2)COc2cnc3ccc(F)cc3c2C(=O)N[C@H](C(=O)NCCc2cccc(-c3cnccn3)c2)CC(=O)N1C [Example 134, (3′S,7′S,13′R)-13′-benzyl-20′-fluoro-7′-isobutyl-6′,9′-dimethyl-1′,5′,8′,11′-tetraoxo-N-(3-(pyrazin-2-yl)phenethyl)-2′,3′,4′,5′,6′,7′,8′,9′,11′,12′,13′,14′-dodecahydro-1′H-spiro[cyclopropane-1,10′-[1]oxa[4,7,10,14]tetraazacycloheptadecino[17,16-c]quinoline]-3′-carboxamide]	506	150

Second part, the compound after the results:

EC50 [nM]	Emax [%]	SMILES
331	212	CC(C)C[C@H]1C(=O)N(C)C2(CC2)C(=O)N[C@H](Cc2ccccc2)COc2cnc3ccccc3c2C(=O)N[C@H](C(=O)NCCc2cc(F)cc(F)c2)CC(=O)N1C [Example 120, (3′S,7′S,13′R)-13′-benzyl-N-(3,5-difluorophenethyl)-7′-isobutyl-6′,9′-dimethyl-1′,5′,8′,11′-tetraoxo-2′,3′,4′,5′,6′,7′,8′,9′,11′,12′,13′,14′-dodecahydro-1′H-spiro[cyclopropane-1,10′-[1]oxa[4,7,10,14]tetraazacycloheptadecino[17,16-c]quinoline]-3′-carboxamide]
324	292	CC(C)C[C@H]1C(=O)N2CCCC[C@@H]2C(=O)N[C@H](Cc2ccccc2)COc2cnc3ccccc3c2C(=O)N[C@H](C(=O)NCCc2ccc(-c3ncccn3)cc2)CC(=O)N1C [Example 122, (9S,13S,19aR,22R)-22-benzyl-13-isobutyl-12-methyl-7,11,14,20-tetraoxo-N-(4-(pyrimidin-2-yl)phenethyl)-7,8,9,10,11,12,13,14,17,18,19,19a,20,21,22,23-hexadecahydro-16H-pyrido[2′,1′:6,7][1]oxa[4,7,10,14]tetraazacycloheptadecino[17,16-c]quinoline-9-carboxamide]
382	347	CC(C)C[C@H]1C(=O)N2CCCC[C@@H]2C(=O)N[C@H](Cc2ccccc2)COc2cnc3ccccc3c2C(=O)N[C@H](C(=O)NCCc2cnn(C3CC3)c2)CC(=O)N1C [Example 124, (9S,13S,19aR,22R)-22-benzyl-N-(2-(1-cyclopropyl-1H-pyrazol-4-yl)ethyl)-13-isobutyl-12-methyl-7,11,14,20-tetraoxo-7,8,9,10,11,12,13,14,17,18,19,19a,20,21,22,23-hexadecahydro-16H-pyrido[2′,1′:6,7][1]oxa[4,7,10,14]tetraazacycloheptadecino[17,16-c]quinoline-9-carboxamide]
271	229	Cc1cc(CCNC(=O)[C@@H]2CC(=O)N(C)[C@@H](CC(C)C)C(=O)N3CCCC[C@@H]3C(=O)N[C@H](Cc3ccccc3)COc3cnc4ccccc4c3C(=O)N2)ccc1-n1nccn1 [Example 125, (9S,13S,19aR,22R)-22-benzyl-13-isobutyl-12-methyl-N-(3-methyl-4-(2H-1,2,3-triazol-2-yl)phenethyl)-7,11,14,20-tetraoxo-7,8,9,10,11,12,13,14,17,18,19,19a,20,21,22,23-hexadecahydro-16H-pyrido[2′,1′:6,7][1]oxa[4,7,10,14]tetraazacycloheptadecino[17,16-c]quinoline-9-carboxamide]
107	311	CC(C)C[C@H]1C(=O)N2CCCC[C@@H]2C(=O)N[C@H](Cc2ccccc2)COc2cnc3ccccc3c2C(=O)N[C@H](C(=O)NCCc2nc(C3CC3)no2)CC(=O)N1C [Example 127, (9S,13S,19aR,22R)-22-benzyl-N-(2-(3-cyclopropyl-1,2,4-oxadiazol-5-yl)ethyl)-13-isobutyl-12-methyl-7,11,14,20-tetraoxo-7,8,9,10,11,12,13,14,17,18,19,19a,20,21,22,23-hexadecahydro-16H-pyrido[2′,1′:6,7][1]oxa[4,7,10,14]tetraazacycloheptadecino[17,16-c]quinoline-9-carboxamide]
190	292	CC(C)C[C@H]1C(=O)N2CCCC[C@@H]2C(=O)N[C@H](Cc2ccccc2)COc2cnc3ccccc3c2C(=O)N[C@H](C(=O)NCCc2noc(C3CCC3)n2)CC(=O)N1C [Example 128, (9S,13S,19aR,22R)-22-benzyl-N-(2-(5-cyclobutyl-1,2,4-oxadiazol-3-yl)ethyl)-13-isobutyl-12-methyl-7,11,14,20-tetraoxo-7,8,9,10,11,12,13,14,17,18,19,19a,20,21,22,23-hexadecahydro-16H-pyrido[2′,1′:6,7][1]oxa[4,7,10,14]tetraazacycloheptadecino[17,16-c]quinoline-9-carboxamide]
1000	264	COc1cccc(-c2noc(CCNC(=O)[C@@H]3CC(=O)N(C)[C@@H](CC(C)C)C(=O)N4CCOC[C@@H]4C(=O)N[C@H](Cc4ccccc4)COc4cnc5ccccc5c4C(=O)N3)n2)c1 [Example 130, (9S,13S,19aR,22R)-22-benzyl-13-isobutyl-N-(2-(3-(3-methoxyphenyl)-1,2,4-oxadiazol-5-yl)ethyl)-12-methyl-7,11,14,20-tetraoxo-7,8,9,10,11,12,13,14,16,17,19,19a,20,21,22,23-hexadecahydro-[1,4]oxazino[3′,4′:6,7][1]oxa[4,7,10,14]tetraazacycloheptadecino[17,16-c]quinoline-9-carboxamide]
149	213	CC(C)C[C@H]1C(=O)N(C)C2(CC2)C(=O)N[C@H](Cc2ccccc2)COc2cnc3ccc(F)cc3c2C(=O)N[C@H](C(=O)NCCc2ccc(-c3cnccn3)cc2)CC(=O)N1C [Example 133, (3′S,7′S,13′R)-13′-benzyl-20′-fluoro-7′-isobutyl-6′,9′-dimethyl-1′,5′,8′,11′-tetraoxo-N-(4-(pyrazin-2-yl)phenethyl)-2′,3′,4′,5′,6′,7′,8′,9′,11′,12′,13′,14′-dodecahydro-1′H-spiro[cyclopropane-1,10′-[1]oxa[4,7,10,14]tetraazacycloheptadecino[17,16-c]quinoline]-3′-carboxamide]
